# Reference: patent US11744273B2, “Sweetness enhancing volatile compositions and methods of increasing perceived sweetness of a comestible” (University of Florida Research Foundation, Inc., priority 2016, dated 2023)
# Assays:
# Format in all cases: in vivo, human
# flavor intensity = assay: Tomato taste panel; association of compounds with tomato flavor intensity; conditions: for association with flavor intensity: univariate models
# Protocol: (§1) Fully ripe fruit were harvested, and used for taste panels. A random subset of fruit was used for biochemical analysis. Three biological replicates, each consisting of 2-20 fruit (depending on fruit size), were assayed for each variety. […] Panelists were between the ages of 18 and 78 with a median age of 22. […] An average of 85 (range of 66-95) of these panelists evaluated between 4-6 varieties in a session. All panelists went through a training session to familiarize them with the scaling and procedures. Tomatoes were sliced into wedges (or in halves for grape/cherry types) and each panelist was given two pieces for evaluation. Panelists took a bite of each sample, chewed and swallowed it, and rated overall liking and liking for texture. They then rated the perceived intensities of sweetness, sourness, saltiness, umami sensation, bitterness and overall tomato flavor. They were free to take as many bites as necessary to complete the assessments. They were instructed to take a bite of an unsalted cracker and a sip of water between samples. Samples were presented to the panelists in a randomized order. Hedonic ratings used the hedonic gLMS. This scale assesses the liking for tomatoes in the context of all pleasure/displeasure experiences: 0=neutral, −100=strongest disliking of any kind experienced, and +100=strongest liking of any kind experienced. Sensory intensity ratings used the gLMS (7,8,19). This scale assesses taste and flavor sensations in the context of all sensory experience (7): 0=no sensation, 100=strongest sensation of any kind experienced. Both scales were devised to provide valid comparisons across subjects.
# (§2) The 68 chemical compounds measured in this experiment were initially divided into six groups based upon biochemical properties: sugars, branched chain amino acids, lipids, carotenoids, phenolics, and acids. A small number of compounds for which biosynthetic pathways are not established were assigned to one of the six classes based upon their correlations with other classified compounds. All pairwise correlations among the set of 68 compounds were calculated. Correlation coefficients were sorted using Modulated Modularity Clustering (MMC) (9) as a visual aid for identifying compounds that are closely related in this sample. Biochemical groups were examined for compounds within the group that were highly correlated and compounds that were upstream in the relevant metabolic pathways were preferentially selected.
# (§3) All analyses were performed in SAS v 9.2.
# Due to the large number of chemicals potentially influencing liking, a multivariate analysis of the data was performed. The attributes were initially partitioned into six groups based upon chemical properties and biosynthetic pathways: sugars, branched chain amino acids, fatty acids, carotenoids, phenolics, and acids. […] Groups of structurally related chemicals with known metabolic links were examined for compounds within each module that were highly colinear and compounds that were upstream in relevant metabolic pathways were preferentially selected.
# [1] = test system: perceived sweetness intensity; assay: Strawberry consumer panel; revised partial least squares regression against sweetness intensity (Table 6)
# Protocol: (§4) All consumer panels were approved by the University of Florida Institutional Review Board. […] Ages of panelist ranged from 18 to 71, with a median age of 24. Panelists self-classified themselves as 98 White or Caucasian, 11 Black or African-American, 1 Native American, Alaska Native or Aleutian, 41 Asian/Pacific Islander, and 15 Other. […] Fresh, fully-ripe strawberry fruit was removed from overnight 4° C. dark storage and allowed to warm to room temperature prior to sensory analysis. Each panelist was given one to two whole strawberries for evaluation, depending on cultivar availability. Panelist took a bite of each sample, chewed, and swallowed it. Ratings for overall liking and liking for texture were scaled on hedonic general labeled magnitude scale (gLMS) in the context of all pleasure/displeasure experiences. […] Scales were employed to mediate valid comparisons across subjects and sessions.
# For the second analysis, partial least squares regression analysis was used to identify more correlations to sweetness independent of sugars.
# perceived sweetness = assay: Tomato taste panel; initial multiple regression of volatiles against perceived sweetness (Table 3); conditions: for association with sweetness after accounting for fructose / association with sweetness: tomato; for association with sweetness: univariate models
# Protocol: as §1, §2, §3
# In conducting the multiple regression analysis on the tomato data set, the independent variables were the sugar content (glucose+fructose), and the flavor (indicated by the retronasal perception of volatiles), while the dependent variable was the perceived sweetness.
# [2] = test system: perceived sweetness intensity; assay: Strawberry consumer panel; initial multiple regression of volatiles against perceived sweetness intensity independent of glucose, fructose or sucrose (Table 5); conditions: for FRUCTOSE t RATIO / GLUCOSE t RATIO / SUCROSE t RATIO: standard least squares; for FRUCTOSE t RATIO: sweetness intensity independent of fructose; for GLUCOSE t RATIO: sweetness intensity independent of glucose; for SUCROSE t RATIO: sweetness intensity independent of sucrose; for relation to sweetness intensity independent of sugars: initial step-wise multiple regression
# Protocol: Step-wise multiple regressions of all volatile compounds against perceived intensity of sweetness is performed independent of either glucose, fructose, or sucrose concentration, separately (Table 5).
# At least 100 grams or seven berries of each sample were removed from 4° C. dark overnight storage prior to volatile collection. Samples were homogenized in a blender prior to splitting into three 15 gram replicates for immediate capturing of volatile emission and remainder of sample frozen in N2 (I) and stored at −80° C. for later sugar and acid quantification.
# Oven temperatures programmed from 40° C. (0.5 min hold) at 5° C. min^−1 to 250° C. (4 min hold). Signals captured with a flame ionization detector (FID) at 280° C. Peaks from FID signal were integrated manually with Chemstation B.04.01 software (Agilent Technologies, Santa Clara, Calif.). Volatile emission (ng gFW^−1 h^−1) calculated based on individual peak area relative to sample elution standard peak area.
# as §4
# For the first analysis, individual volatile compound concentrations were regressed using the “enter” method in SPSS Statistics (IBM Corp, Armonk, N.Y., USA).
# [3] = strawberry volatile concentration regressed against perceived sweetness intensity independent of fructose, partial least squares regression
# [4] = strawberry volatile concentration regressed against perceived sweetness intensity independent of glucose, partial least squares regression
# [5] = strawberry volatile concentration regressed against perceived sweetness intensity independent of sucrose, partial least squares regression
compound,measurement,setting,value
C=CC(=O)CCCCC [1-octen-3-one],association with flavor intensity after accounting for fructose,flavor intensity,significant after accounting for fructose
same,association with flavor intensity,flavor intensity,associated with flavor intensity
CCCCCC=CC=O [2-Octenal],t Ratio (Fructose),[1]; [3],−0.171
same,t Ratio (Glucose),[1]; [4],0.292
same,t Ratio (Sucrose),[1]; [5],2.052
"CCC(C)C=O (stereo not drawn) [2-methylbuteraldehyde, 2-methylbutanal]",association with sweetness after accounting for fructose,perceived sweetness,significant after accounting for fructose
same,association with sweetness,perceived sweetness,showed evidence for association with sweetness
same,association with flavor intensity after accounting for fructose,flavor intensity,significant after accounting for fructose
same,association with flavor intensity,flavor intensity,associated with flavor intensity
CC(C)CCO [3-methyl-1-butanol],association with sweetness after accounting for fructose,perceived sweetness,significant after accounting for fructose
same,association with sweetness,perceived sweetness,showed evidence for association with sweetness
same,association with flavor intensity after accounting for fructose,flavor intensity,significant after accounting for fructose
same,association with flavor intensity,flavor intensity,associated with flavor intensity
CC1C=CC2C(C1)C2(C)C (stereo not drawn) [4-carene],association with sweetness,perceived sweetness,showed evidence for association with sweetness
C=C[C@]1(C)CC[C@H](C(C)(C)O)O1 [5989-33-3],FRUCTOSE t RATIO,[2],1.869
same,GLUCOSE t RATIO,[2],1.561
same,SUCROSE t RATIO,[2],1.953
CCOC(=O)C(C)CC (stereo not drawn) [7452-79-1],FRUCTOSE t RATIO,[2],1.959
same,GLUCOSE t RATIO,[2],1.993
same,SUCROSE t RATIO,[2],−0.785
CCCCCCCCOC(=O)CC(C)C [7786-58-5],FRUCTOSE t RATIO,[2],0.362
same,GLUCOSE t RATIO,[2],0.227
same,SUCROSE t RATIO,[2],2.027
CCCCCCCCCOC(=O)C(C)C [10522-34-6],FRUCTOSE t RATIO,[2],0.536
same,GLUCOSE t RATIO,[2],0.288
same,SUCROSE t RATIO,[2],2.049
C=C(C)C1CC=C(COC(C)=O)CC1 (stereo not drawn) [15111-96-3],FRUCTOSE t RATIO,[2],0.23
same,GLUCOSE t RATIO,[2],0.192
same,SUCROSE t RATIO,[2],0.927
CCCCC/C=C\C=O [20664-46-4],FRUCTOSE t RATIO,[2],−0.17
same,GLUCOSE t RATIO,[2],−0.395
same,SUCROSE t RATIO,[2],1.383
CCC(O)C(=O)OC (stereo not drawn) [29674-47-3],FRUCTOSE t RATIO,[2],1.339
same,GLUCOSE t RATIO,[2],1.362
same,SUCROSE t RATIO,[2],0.035
CCCCCCCCOC(=O)C(C)CC (stereo not drawn) [29811-50-5],FRUCTOSE t RATIO,[2],0.016
same,GLUCOSE t RATIO,[2],−0.098
same,SUCROSE t RATIO,[2],0.358
C=CC(C)(O)CC/C=C(\C)CCC=C(C)C (stereo not drawn) [40716-66-3],FRUCTOSE t RATIO,[2],1.521
same,GLUCOSE t RATIO,[2],1.202
same,SUCROSE t RATIO,[2],1
CC=C(C)C(=O)OCC [55514-48-2],FRUCTOSE t RATIO,[2],−0.644
same,GLUCOSE t RATIO,[2],−0.675
same,SUCROSE t RATIO,[2],−0.889
"CCCC(=O)OC(C)CCC (stereo not drawn) [60415-61-4, 2-pentanyl butyrate]",relation to sweetness intensity independent of sugars,[2],enhance sweetness intensity
C=C[C@]1(C)CC[C@H](C(C)(C)O)O1 [(Z)-Linalool oxide],t Ratio (Fructose),[1]; [3],1.868
same,t Ratio (Glucose),[1]; [4],1.561
same,t Ratio (Sucrose),[1]; [5],1.954
CC1(C)[C@H]2CC=C(C=O)[C@@H]1C2 [Myrtenal],t Ratio (Fructose),[1]; [3],2.588
same,t Ratio (Glucose),[1]; [4],2.455
same,t Ratio (Sucrose),[1]; [5],−1.323
CCCCCCCCOC(=O)C(C)CC (stereo not drawn) [Octyl 2-methyl butyrate],t Ratio (Fructose),[1]; in vivo,0.015
same,t Ratio (Glucose),[1]; in vivo,−0.099
same,t Ratio (Sucrose),[1]; in vivo,0.357
C=C(C)C1CC=C(COC(C)=O)CC1 (stereo not drawn) [Perillyl acetate],t Ratio (Fructose),[1]; [3],0.231
same,t Ratio (Glucose),[1]; [4],0.193
same,t Ratio (Sucrose),[1]; [5],0.927
c1ccc2scnc2c1 [benzothiazole],association with flavor intensity,flavor intensity,associated with flavor intensity
CCCCOC(C)=O [butyl acetate],association with sweetness,perceived sweetness,showed evidence for association with sweetness
same,association with flavor intensity,flavor intensity,associated with flavor intensity
CC/C=C\CCO [cis-3-hexen-1-ol],association with sweetness,perceived sweetness,showed evidence for association with sweetness
same,association with flavor intensity after accounting for fructose,flavor intensity,significant after accounting for fructose
same,association with flavor intensity,flavor intensity,associated with flavor intensity
CCCCC/C=C\CCC=O [cis-4-decenal],t,"perceived sweetness; tomato volatiles, multiple regression, contribution to sweetness independent of the measures of sugar",0.582
O=C(O)CC(O)(CC(=O)O)C(=O)O [citric acid],association with flavor intensity after accounting for fructose,flavor intensity,significant after accounting for fructose
same,association with flavor intensity,flavor intensity,associated with flavor intensity
C=CCc1ccc(O)c(OC)c1 [eugenol],association with sweetness,perceived sweetness,showed evidence for association with sweetness
COc1ccccc1O [guaiacol],association with sweetness,perceived sweetness,showed evidence for association with sweetness
CCCCCCC=O [heptaldehyde],association with sweetness,perceived sweetness,showed evidence for association with sweetness
CCCCCCOC(C)=O [hexyl acetate],relation to sweetness intensity independent of sugars,[2],enhance sweetness intensity
O=CCc1ccccc1 [phenylacetaldehyde],association with sweetness,perceived sweetness,showed evidence for association with sweetness
"CC(=O)OCC=C(C)C [prenyl acetate, 3-methyl-2-buten-1-yl acetate]",relation to sweetness intensity independent of sugars,[2],negatively related to sweetness
CCC(C)OC(C)=O (stereo not drawn) [sec-butyl acetate],association with flavor intensity after accounting for fructose,flavor intensity,significant after accounting for fructose
"CCCCC/C=C/C=C/C=O [trans,trans-2,4-decadienal]",association with flavor intensity after accounting for fructose,flavor intensity,significant after accounting for fructose
same,association with flavor intensity,flavor intensity,associated with flavor intensity
CCCCCCC1CCC(=O)O1 (stereo not drawn) [γ-Decalactone],t Ratio (Fructose),[1]; [3],1.246
same,t Ratio (Glucose),[1]; [4],0.88
same,t Ratio (Sucrose),[1]; [5],1.650
Methyl thiolacetate,t Ratio (Fructose),[1]; [3],0.476
same,t Ratio (Glucose),[1]; [4],0.416
same,t Ratio (Sucrose),[1]; [5],1.037
